The text below walks through data of patent US20110201564A1, “SUBSTITUTED 7-SULFANYLMETHYL, 7-SULFINYLMETHYL AND 7-SULFONYLMETHYL INDOLES AND USE THEREOF” (BAYER SCHERING PHARMA AKTIENGESELLSCHAFT, priority 2008, published 2011).

Common to all, as to assay type: cell-based
Experiment [1] deals with T1, human mineralocorticoid receptor (MR) (Homo sapiens, UniProt P08235).
T1 construct: expressed in transfected cells; host or cells: CHO K1
T1 sequence (P08235 734-984 limits assumed): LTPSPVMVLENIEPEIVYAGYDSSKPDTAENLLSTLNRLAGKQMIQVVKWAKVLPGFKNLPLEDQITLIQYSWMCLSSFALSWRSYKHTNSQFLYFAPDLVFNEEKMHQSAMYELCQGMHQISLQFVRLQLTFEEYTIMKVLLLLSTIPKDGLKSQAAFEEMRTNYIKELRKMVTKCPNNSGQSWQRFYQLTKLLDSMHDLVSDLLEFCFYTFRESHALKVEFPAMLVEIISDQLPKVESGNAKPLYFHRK
As to the kind of experiment: Cellular in vitro assay, GAL4-MR chimera luciferase reporter in CHO K1 cells (inhibitory MR activity). As to conditions: antagonism vs aldosterone; CHO K1 GAL4-MR LBD luciferase reporter. An excerpt: (§1) 1. Cellular In Vitro Assay to Determine the Inhibitory MR Activity and MR Selectivity Compared with Other Steroid Hormone Receptors
(§2) Antagonists of the human mineralocorticoid receptor (MR) are identified, and the activity of the compounds described herein is quantified with the aid of a recombinant cell line. The cell is originally derived from a hamster ovary epithelial cell (Chinese Hamster Ovary, CHO K1, ATCC: American Type Culture Collection, VA 20108, USA).
(§3) An established chimera system in which the ligand-binding domains of human steroid hormone receptors are fused to the DNA-binding domain of the yeast transcription factor GAL4 is used in this CHO K1 cell line. The GAL4-steroid hormone receptor chimeras produced in this way are cotransfected and stably expressed with a reporter construct in the CHO cells.
(§4) To generate the GAL4-steroid hormone receptor chimeras, the GAL4 DNA-binding domain (amino acids 1-147) from the vector pFC2-dbd (from Stratagene) is cloned with the PCR-amplified ligand-binding domains of the mineralocorticoid receptor (MR, amino acids 734-985), of the progesterone receptor (PR, amino acids 680-933) and of the androgen receptor (AR, amino acids 667-919) into the vector pIRES2 (from Clontech). The reporter construct, which comprises five copies of the GAL4 binding site upstream of a thymidine kinase promoter, leads to expression of firefly luciferase (Photinus pyralis) after activation and binding of the GAL4-steroid hormone receptor chimeras by the respective specific agonists aldosterone (MR), dexamethasone (GR), progesterone (PR) and dihydrotestosterone (AR).
(§5) The MR, PR and AR cells are plated out in medium (Optimem, 2.5% FCS, 2 mM glutamine, 10 mM HEPES) in 96- (or 384- or 1536-)well microtiter plates on the day before the assay and are kept in a cell incubator (96% humidity, 5% v/v CO2, 37° C.). On the day of the assay, the substances to be tested are taken up in the abovementioned medium and added to the cells. About 10 to 30 minutes after addition of the test substances, the respective specific agonists of the steroid hormone receptors are added. After a further incubation time of 5 to 6 hours, the luciferase activity is measured with the aid of a video camera. The measured relative light units as a function of the substance concentration result in a sigmoidal stimulation curve. The IC50 values are calculated with the aid of the GraphPad PRISM computer program (Version 3.02).

Experiment [2] addresses T2, androgen receptor (AR) (Homo sapiens, UniProt P10275).
T2 construct: of the androgen receptor (AR, amino acids 667-919); expressed in transfected cells; host or cells: CHO K1
T2 sequence (P10275 668-920): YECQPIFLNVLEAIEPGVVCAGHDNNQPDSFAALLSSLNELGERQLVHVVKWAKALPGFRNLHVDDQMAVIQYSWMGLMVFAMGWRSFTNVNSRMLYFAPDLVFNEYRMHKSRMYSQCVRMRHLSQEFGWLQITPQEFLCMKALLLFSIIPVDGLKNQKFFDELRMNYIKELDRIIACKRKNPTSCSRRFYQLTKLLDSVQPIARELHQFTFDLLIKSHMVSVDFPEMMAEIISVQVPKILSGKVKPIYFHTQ
Put plainly: Cellular in vitro assay, GAL4-AR chimera luciferase reporter in CHO K1 cells (selectivity). Conditions: antagonism vs dihydrotestosterone; CHO K1 GAL4-AR LBD luciferase reporter.
From the text: as §1, §2, §3, §4, §5

The target of experiment [3] is T3, progesterone receptor (PR) (Homo sapiens, UniProt P06401).
T3 construct: of the progesterone receptor (PR, amino acids 680-933); expressed in transfected cells; host or cells: CHO K1
T3 sequence (P06401 680-933): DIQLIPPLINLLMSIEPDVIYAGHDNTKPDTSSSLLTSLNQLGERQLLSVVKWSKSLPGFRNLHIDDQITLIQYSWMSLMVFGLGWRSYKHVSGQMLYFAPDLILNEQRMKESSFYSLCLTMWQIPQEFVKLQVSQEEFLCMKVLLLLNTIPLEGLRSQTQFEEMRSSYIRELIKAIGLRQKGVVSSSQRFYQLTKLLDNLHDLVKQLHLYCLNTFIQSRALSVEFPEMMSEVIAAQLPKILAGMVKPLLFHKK
As to the kind of experiment: Cellular in vitro assay, GAL4-PR chimera luciferase reporter in CHO K1 cells (selectivity). As to conditions: antagonism vs progesterone; CHO K1 GAL4-PR LBD luciferase reporter.
From the text: as §1, §2, §3, §4, §5
Background: Reporter assays use an easily measured gene product as a stand-in for the process of interest.

For orientation: IC50 means the concentration needed to halve the response being measured. Low readings indicate greater potency, high ones weaker potency. Take `CS(=O)(=O)Cc1cccc2c(C(c3ccc(Cl)cc3Cl)C3CC3(F)F)c[nH]c12` (single isomer, unassigned) [Example 325-1-1, 3-[(2,4-Dichlorophenyl)(2,2-difluorocyclopropyl)methyl]-7-[(methylsulfonyl)methyl]-1H-indole]: the values for the IC50 in experiment [1], in experiment [2] and in experiment [3] were 12 nM, 520 nM and 7530 nM, respectively.

Regarding `CSCc1cc(F)cc2c(C(C)(c3ccc(Cl)cc3)C3CC3C#N)c[nH]c12` (stereo not shown) [Example 179, 2-[1-(4-Chlorophenyl)-1-{5-fluoro-7-[(methylsulfanyl)methyl]-1H-indol-3-yl}ethyl]cyclopropanecarbonitrile], the IC50 in experiment [1] was 100 nM; in experiment [2] it was 2030 nM; in experiment [3] it was 1930 nM.

Take `C[S+]([O-])Cc1cccc2c(C(c3ccc(Cl)cc3)c3ccc(Cl)cc3)c[nH]c12` (racemic) [Example 296, 3-[Bis(4-chlorophenyl)methyl]-7-[(methylsulfinyl)methyl]-1H-indole]: the IC50 in experiment [1] turned out to be 210 nM; in experiment [2], 6570 nM; in experiment [3], 4810 nM.

Take `CCC(CCC#N)(c1ccc(Cl)cc1)c1c[nH]c2c(CSC)cccc12` (stereo not shown) [Example 157, 4-(4-Chlorophenyl)-4-{7-[(methylsulfanyl)methyl]-1H-indol-3-yl}hexanonitrile]: the concentration for half-maximal inhibition (IC50) was 18 nM in experiment [1], 3390 nM in experiment [2] and 2140 nM in experiment [3].

Consider `CSCc1cc(F)cc2c(C(c3ccc(C)cc3)C3CC3C#N)c[nH]c12` (stereo not shown) [Example 260, 2-[{5-Fluoro-7-[(methylsulfanyl)methyl]-1H-indol-3-yl}(4-methylphenyl)methyl]cyclopropane-carbonitrile], for which the 50% inhibitory concentration (IC50) in experiment [1] came out at 39 nM; in experiment [2], 9030 nM; in experiment [3] it was 5230 nM.

For `CS(=O)(=O)Cc1cccc2c(C3(C4CC4)CCOc4cc(F)cc(F)c43)c[nH]c12` (stereo not shown) [Example 219, 3-(4-Cyclopropyl-5,7-difluoro-3,4-dihydro-2H-chromen-4-yl)-7-[(methylsulfonyl)methyl]-1H-indole], the figures for the IC50 in experiment [1], in experiment [2] and in experiment [3] were 42 nM, 2730 nM and 8120 nM, respectively.

Consider `CSCc1cccc2c(C(C)(c3ccc(C(F)(F)F)cc3)C3CC3C#N)c[nH]c12` (stereo not shown) [Example 177, 2-(1-{7-[(Methylsulfanyl)methyl]-1H-indol-3-yl}-1-[4-(trifluoromethyl)phenyl]ethyl)cyclopropanecarbonitrile], for which the IC50 in experiment [1] amounted to 77 nM; in experiment [2], 1940 nM; in experiment [3], 5780 nM.

As for `CSCc1cccc2c(C(c3ccc(F)cc3)c3ccc(Cl)cc3)c[nH]c12` (stereo not shown) [Example 100, 3-[(4-Chlorophenyl)(4-fluorophenyl)methyl]-7-[(methylsulfanyl)methyl]-1H-indole], the values for the IC50 in experiment [1], in experiment [2] and in experiment [3] were 460 nM, 5240 nM and 10000 nM, respectively.

In the case of `Cc1cc(Cl)ccc1C(CCO)c1c[nH]c2c(CS(C)(=O)=O)cccc12` (stereo not shown) [Example 26, 3-(4-Chloro-2-methylphenyl)-3-{7-[(methylsulfonyl)methyl]-1H-indol-3-yl}propan-1-ol], the results for the IC50 in experiment [1], in experiment [2] and in experiment [3] were 50 nM, 2230 nM and 2320 nM, respectively.

Consider `C[S+]([O-])Cc1cccc2c(C(C)(c3ccc(Cl)cc3F)C3CC3)c[nH]c12` (mixture of isomers) [Example 124, 3-[1-(4-Chloro-2-fluorophenyl)-1-cyclopropylethyl]-7-[(methylsulfinyl)methyl]-1H-indole], for which the IC50 was determined as 120 nM in experiment [1], 6940 nM in experiment [2] and 8130 nM in experiment [3].

On to `CS(=O)(=O)Cc1cccc2c(C(CCC#N)c3ccc(C(F)(F)F)cc3F)c[nH]c12` (stereo not shown) [Example 68, 4-[2-Fluoro-4-(trifluoromethyl)phenyl]-4-{7-[(methylsulfonyl)methyl]-1H-indol-3-yl}butanonitrile], for which the IC50 came to 190 nM in experiment [1], 5070 nM in experiment [2] and 3910 nM in experiment [3].

With `CS(=O)(=O)Cc1cccc2c(C(c3ccc(C(F)(F)F)cc3)C3CC3(F)F)c[nH]c12` (mixture of isomers) [Example 324, 3-{(2,2-Difluorocyclopropyl)[4-(trifluoromethyl)phenyl]methyl}-7-[(methylsulfonyl)methyl]-1H-indole], the IC50 in experiment [1] came out at 400 nM; in experiment [3], 6900 nM.

For `CS(=O)(=O)Cc1cccc2c(C3(C4CC4)CCc4cc(F)ccc43)c[nH]c12` (single isomer, unassigned) [Example 107-1, 3-(1-Cyclopropyl-5-fluoro-2,3-dihydro-1H-inden-1-yl)-7-[(methylsulfonyl)methyl]-1H-indole], the IC50 in experiment [1] was 20 nM; in experiment [2], 2160 nM; in experiment [3], 9160 nM.

On to `CS(=O)(=O)Cc1cccc2c(C(CCC#N)c3ccc4ccccc4c3)c[nH]c12` (stereo not shown) [Example 69, 4-{7-[(Methylsulfonyl)methyl]-1H-indol-3-yl}-4-(naphthalen-2-yl)butanonitrile], for which the IC50 in experiment [1] was 420 nM; in experiment [2], 5220 nM; in experiment [3], 6590 nM.

Regarding `CS(=O)(=O)Cc1cc(F)cc2c(C(CCC#N)c3ccc(Cl)cc3Cl)c[nH]c12` (stereo not shown) [Example 63, 4-(2,4-Dichlorophenyl)-4-{5-fluoro-7-[(methylsulfonyl)methyl]-1H-indol-3-yl}butanonitrile], the IC50 in experiment [1] is 40 nM; in experiment [2], 3760 nM; in experiment [3], 4810 nM.

Regarding `CC(c1ccc(Cl)cc1)(c1c[nH]c2c(CS(C)(=O)=O)cccc12)C1CC1C#N` (stereo not shown) [Example 106, 2-[1-(4-Chlorophenyl)-1-{7-[(methylsulfonyl)methyl]-1H-indol-3-yl}ethyl]cyclopropanecarbonitrile], the IC50 was 40 nM in experiment [1], 5310 nM in experiment [2] and 11700 nM in experiment [3].

For the compound `CS(=O)(=O)Cc1cccc2c(C(CCC#N)c3ccc(Cl)cc3Cl)c[nH]c12` (stereo not shown) [Example 62, 4-(2,4-Dichlorophenyl)-4-{7-[(methylsulfonyl)methyl]-1H-indol-3-yl}butanonitrile], the IC50 in experiment [1] is 60 nM; in experiment [2], 7090 nM; in experiment [3], 12800 nM.

As to `CSCc1cccc2c(C(CCC#N)c3ccc(Cl)cc3F)c[nH]c12` (single isomer, unassigned) [Example 38-1, 4-(4-Chloro-2-fluorophenyl)-4-{7-[(methylsulfanyl)methyl]-1H-indol-3-yl}butanonitrile], the figures for the IC50 in experiment [1], in experiment [2] and in experiment [3] were 16 nM, 1120 nM and 1510 nM, respectively.

For the compound `C[S+]([O-])Cc1cccc2c(C(c3c(F)cc(Cl)cc3F)C3CC3)c[nH]c12` (mixture of isomers) [Example 238, 3-[(4-Chloro-2,6-difluorophenyl)(cyclopropyl)methyl]-7-[(methylsulfinyl)methyl]-1H-indole], the IC50 stood at 190 nM in experiment [1] and 10000 nM in experiment [3].
